Experiments:
[1] = target: CYP2C19 (Homo sapiens, UniProt P33261); experiment: CYP inhibition in liver microsomes (S-mephenytoin); format: in vitro ADME; conditions: CYP 2C19, marker substrate S-mephenytoin
Protocol: (§1) A liver microsome working solution (20 mg/mL) contained potassium phosphate buffer (0.1 M, pH 7.4), hepatic microsomes and marker substrate solution, which phenacetin, diclofenic acid, S-mephenytoinwer, dextromethorphan, midazolam, coumarin and chlorzoxazone used as substrates for […], CYP2C9, CYP2C19, CYP2D6, CYP3A4/5, CYP2A6 and CYP2E1, respectively. In brief, 238.5 µL of liver microsome working solution was placed in a 1 mL EP tube. […] The reaction was started by injecting NADPH (1 mM), and the resulting mixture was incubated at 37 °C for 10 min. After centrifuging at 4000 rpm for 15 min, the supernatant was transferred and analyzed using LC-MS/MS to detect the corresponding metabolites. Each incubation was conducted in triplicate (n = 3).
(§2) An API 4000 LC/tandem mass spectrometry was used to analyze the concentration of metabolites of various chemical agents using a validated mode. An Atlantis T3 column (2.1 mm × 50 mm, 5 μm) was utilized, employing mobile phases consisting of a 0.1% formic acid solution (A) and a 0.1% acetonitrile formate solution (B). […] MRM was utilized to quantify each metabolite, detecting the following transitions: m/z 152.1/110 for acetaminophen, 312.1/230.0 for 4′-Hydroxydiclofenac, 235.0/150.0 for 4′-hydroxymephentoin, 258.2/199.1 for Dextrorphan, 342.1/203.0 for 1′-hydroxymidazolam, 161.1/133.1 for hydroxycoumarin, and 184.0/120.0 for 6-hydroxyclozoxadone.

[2] = target: CYP2D6 (Homo sapiens, UniProt P10635); experiment: CYP inhibition in liver microsomes (dextromethorphan); format: in vitro ADME; conditions: CYP 2D6, marker substrate dextromethorphan
CYP2D6, sequence (P10635 whole entry): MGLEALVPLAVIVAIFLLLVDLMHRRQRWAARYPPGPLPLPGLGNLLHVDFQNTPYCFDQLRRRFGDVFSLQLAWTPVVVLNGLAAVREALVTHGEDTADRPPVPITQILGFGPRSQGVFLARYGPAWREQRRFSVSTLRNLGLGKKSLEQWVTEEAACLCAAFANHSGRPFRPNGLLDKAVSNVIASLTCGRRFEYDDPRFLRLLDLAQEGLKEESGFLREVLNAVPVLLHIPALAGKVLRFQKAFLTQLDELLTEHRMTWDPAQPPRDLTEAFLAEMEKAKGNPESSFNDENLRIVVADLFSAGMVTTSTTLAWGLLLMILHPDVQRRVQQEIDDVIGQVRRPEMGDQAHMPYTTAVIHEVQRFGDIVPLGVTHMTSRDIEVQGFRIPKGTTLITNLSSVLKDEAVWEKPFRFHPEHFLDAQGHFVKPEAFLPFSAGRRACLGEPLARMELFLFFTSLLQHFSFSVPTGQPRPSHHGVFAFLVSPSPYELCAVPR
Protocol: as §1, §2

[3] = system: CYP3A4/5; experiment: CYP inhibition in liver microsomes (midazolam); conditions: CYP 3A4/5(M); marker substrate midazolam; liver microsomes
Protocol: as §1
An API 4000 LC/tandem mass spectrometry was used to analyze the concentration of metabolites of various chemical agents using a validated mode. An Atlantis T3 column (2.1 mm × 50 mm, 5 μm) was utilized, employing mobile phases consisting of a 0.1% formic acid solution (A) and a 0.1% acetonitrile formate solution (B). […] As for the detection of CYP 2E1 metabolite, the Flow composition was as follows: 0–0.30 min, 10% B; 0.30–1.30 min, 10–55% B; 1.30–1.50 min, 55–95% B; 1.50–2.00 min, 95% B; 2.00–2.01 min, 95–10% B; the low rate was 0.85 mL/min. ESI was conducted in positive ion mode. MRM was utilized to quantify each metabolite, detecting the following transitions: m/z 152.1/110 for acetaminophen, 312.1/230.0 for 4′-Hydroxydiclofenac, 235.0/150.0 for 4′-hydroxymephentoin, 258.2/199.1 for Dextrorphan, 342.1/203.0 for 1′-hydroxymidazolam, 161.1/133.1 for hydroxycoumarin, and 184.0/120.0 for 6-hydroxyclozoxadone.

CYP2C19, sequence (P33261 whole entry): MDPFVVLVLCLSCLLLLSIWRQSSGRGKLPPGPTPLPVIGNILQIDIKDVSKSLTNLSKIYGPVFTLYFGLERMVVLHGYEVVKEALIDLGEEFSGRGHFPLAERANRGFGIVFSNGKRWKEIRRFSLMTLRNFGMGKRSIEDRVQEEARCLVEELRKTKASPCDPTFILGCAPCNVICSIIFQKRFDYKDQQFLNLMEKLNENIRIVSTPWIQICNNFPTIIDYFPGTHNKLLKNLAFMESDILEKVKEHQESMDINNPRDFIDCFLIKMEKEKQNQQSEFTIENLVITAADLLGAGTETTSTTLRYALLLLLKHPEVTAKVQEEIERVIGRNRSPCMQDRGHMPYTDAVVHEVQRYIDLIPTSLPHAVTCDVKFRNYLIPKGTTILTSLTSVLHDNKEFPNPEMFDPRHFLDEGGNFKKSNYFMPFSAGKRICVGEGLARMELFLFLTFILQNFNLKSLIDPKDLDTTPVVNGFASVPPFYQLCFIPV

`Cc1c(O)c(C)c2c(c1O)C(=O)CC(c1ccc(O)cc1)O2` (single isomer, unassigned; (+)) [(+)-farrerol, 2,3-dihydro-5,7-dihydroxy-2-(4-hydroxyphenyl)-6,8-dimethyl-4-benzopyrone] was tested, and the IC50 [1] was 1.61 µM, the IC50 [2] was over 50 µM and the IC50 [3] was over 5e-05 M.
`Cc1c(O)c(C)c2c(c1O)C(=O)CC(c1ccc(O)cc1)O2` (single isomer, unassigned; (-)) [(−)-farrerol, 2,3-dihydro-5,7-dihydroxy-2-(4-hydroxyphenyl)-6,8-dimethyl-4-benzopyrone] showed an IC50 [1] of 2.07 µM, an IC50 [2] of over 50 µM and an IC50 [3] of 2.09e-05 M.
